Experimental data taken from patent US20210317408A1, “METHODS AND COMPOSITIONS FOR GENETICALLY MODIFYING LYMPHOCYTES IN BLOOD OR IN ENRICHED PBMCS” (Exuma Biotech Corp., priority 2018, published 2021).

B1: SMAD4: miRNA in miR-155 framework directed against SMAD4, SEQ ID NOs:406-409 (nucleic acid)
DNA 1: CGGCACCTGCGCTGCCGTTGGATCGGGGATGAAAGCTGGCGCTGGAGGCTTGCTGAAGGCTGTATGCTGAATTAGGTGTGTATGGTGCAGGTTTTGGCCACTGACTGACCTGCACCACACACCTAATTCAGGACACAAGGCCTGTTACTAGCACTCACATGGAACAAATGGCCCACATTGGTGCCGGATGAAGCTCTTATGTTGCGTCCCATCGCAGGTGCCT
DNA 2: CCTCACCTGCTTGCGTCCCATTCTGGAGGCTTGCTGAAGGCTGTATGCTGAAGTACTTCGTCTAGGAGCTGGTTTTGGCCACTGACTGACCAGCTCCTACGAAGTACTTCAGGACACAAGGCCTGTTACTAGCACTCACATGGAACAAATGGCCGTTGCCTGAGTCTTGGCAGCGAGAGATCACTAACTGCTAAGCAGGTGCTT
DNA 3: TGTCACCTGCACTAACTGCTAACTGGAGGCTTGCTGAAGGCTGTATGCTGTATCCCACGATCTACTCCCCGGTTTTGGCCACTGACTGACCGGGGAGTATCGTGGGATACAGGACACAAGGCCTGTTACTAGCACTCACATGGAACAAATGGCCGTGTTAATTGTCCATGTAGCGAGGCATCCTTATGGCGTGGGCAGGTGTCC
DNA 4: CCTTCACCTGCCTTATGGCGTGGCTGGAGGCTTGCTGAAGGCTGTATGCTGTTATGATGGTAAGTAGCTGGCGTTTTGGCCACTGACTGACGCCAGCTATACCATCATAACAGGACACAAGGCCTGTTACTAGCACTCACATGGAACAAATGGCCGGTGTCCGTTATCGGGGAAGAAGGTCGCGCACATAGCAGGTGTCC
modifications: Synthetic SMAD4 miRNA at P1; Synthetic SMAD4 miRNA at P2; Synthetic SMAD4 miRNA at P3; Synthetic SMAD4 miRNA at P4

Columns and labels:
unstimulated PBMCs = assay: Time course of lentiviral transduction of unstimulated PBMCs, 4 hours to less than 1 minute; type: cell-based, human; settings: 10 μM during 4 hour transduction, replenished in recovery medium
[1] = test system: transduced human PBMCs expressing a CAR in CHO, CHO-ROR2 or CHO-AXL tumors; assay: miRNA library in vivo screen: miRNA blocks recovered from tumors 20 days after dosing transduced PBMCs; parameters: species or system mouse; settings: conclusion from miRNA constructs recovered from tumors at day 20
Description: 108 gBlocks® Gene Fragments were used to generate a library of constructs each containing 4 miRNA precursors in series in positions 1 (P1), 2 (P2), 3 (P3), and 4 (P4). Each gBlock® was specific to P1, P2, P3, or P4 and contained a miR-155 framework (SEQ ID NO:457), including a 5′arm and a 3′arm as described in Example 17 of WO 2019/055946, in which a unique miRNA fragment targeting an mRNA transcript corresponding to 1 of 27 different genes was used to replace the miR-155 stem-loop precursor. For clarity, the sequences of miRNA fragments differed for each position P1-P4 even among miRNA fragments that targeted mRNA transcripts corresponding to the same gene. The gBlocks® for each position contained a unique 40 bp overlap sequence and the type IIs assembly method was used to assemble combinations of four gBlocks® in their prescribed order, to generate the library. By these methods, a total diversity of 531,441 unique constructs (27 miRNA at P1×27 miRNA at P2×27 miRNA at P3×27 miRNA at P4) was possible.
The library of miRNA constructs was separately cloned into the EF-1 alpha intron A of F1-1-315 and F1-2-314 to generate Library 315 and Library 314, respectively. In addition to the EF-1 alpha promoter, F1-1-315 included a CD8a signal peptide, an anti-ROR2:CD28:CD3z CAR, T2A, and an eTag. […]

Molecule | inhibition of transduction (unstimulated PBMCs) | effect of knocking down the transcript on T cells in the tumor microenvironment [1]
Cc1cc(C)c(Nc2ccnc(Nc3ccc(C#N)cc3)n2)c(C)c1 [dapivirine] | inhibition of transduction | –
C[C@@H]1CCO[C@H]2Cn3cc(C(=O)NCc4ccc(F)cc4F)c(=O)c(O)c3C(=O)N12 [dolutegravir] | inhibition of transduction | –
B1 | – | promote the survival and/or proliferation of T cells
